For 4 compounds, Kd results are on record in BindingDB's records for doi:10.1021/jm900098v (Kosan Biosciences, 2009).

The target of this assay is Heat shock protein HSP 90-beta (Homo sapiens, UniProt P08238). The assay is described as follows: Binding affinity to human recombinant HSP90.
Sequence of Heat shock protein HSP 90-beta (P08238 whole entry): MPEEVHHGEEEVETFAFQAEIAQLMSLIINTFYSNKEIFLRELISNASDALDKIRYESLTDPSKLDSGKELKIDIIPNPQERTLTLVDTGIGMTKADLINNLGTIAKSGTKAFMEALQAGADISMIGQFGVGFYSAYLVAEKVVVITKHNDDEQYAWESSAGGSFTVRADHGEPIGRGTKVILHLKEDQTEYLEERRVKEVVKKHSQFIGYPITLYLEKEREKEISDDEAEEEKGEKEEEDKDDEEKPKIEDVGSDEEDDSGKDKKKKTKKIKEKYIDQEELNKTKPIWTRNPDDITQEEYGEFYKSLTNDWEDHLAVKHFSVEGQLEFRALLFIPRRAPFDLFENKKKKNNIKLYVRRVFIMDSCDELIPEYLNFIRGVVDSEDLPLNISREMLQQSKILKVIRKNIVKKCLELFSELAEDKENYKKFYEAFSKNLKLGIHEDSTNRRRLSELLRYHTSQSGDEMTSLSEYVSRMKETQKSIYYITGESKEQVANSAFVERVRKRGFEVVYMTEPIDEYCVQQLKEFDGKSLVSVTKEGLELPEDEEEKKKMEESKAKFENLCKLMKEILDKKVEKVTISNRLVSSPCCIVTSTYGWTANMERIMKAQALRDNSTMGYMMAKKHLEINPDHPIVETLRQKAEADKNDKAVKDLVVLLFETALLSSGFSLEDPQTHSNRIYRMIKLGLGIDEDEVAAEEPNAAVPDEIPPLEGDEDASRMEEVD
As a reminder, the Kd is the free concentration of one partner at which half of the binding sites on the other are occupied at equilibrium, for simple one-to-one binding. For `C=CCO/N=C1/[C@@H](OC)C[C@H](C)Cc2c(O)c(cc(O)c2N=CCN(C)C)NC(=O)C(C)=CC=C[C@H](OC)[C@@H](OC(N)=O)/C(C)=C/[C@@H]1C` [(8S,9S,12S,14S,16R)-13-(allyloxyimino)-19-(2-(dimethylamino)ethylamino)-8,14-dimethoxy-4,10,12,16-tetramethyl-3,20,22-trioxo-2-azabicyclo[16.3.1]docosa-1(21),4,6,10,18-pentaen-9-yl carbamate], the Kd was greater than 100 µM.
As for `CO/N=C1/[C@@H](OC)C[C@H](C)Cc2c(O)c(cc(O)c2N=CCN(C)C)NC(=O)C(C)=CC=C[C@H](OC)[C@@H](OC(N)=O)/C(C)=C/[C@@H]1C` [(8S,9S,12S,14S,16R)-19-(2-(dimethylamino)ethylamino)-8,14-dimethoxy-13-(methoxyimino)-4,10,12,16-tetramethyl-3,20,22-trioxo-2-azabicyclo[16.3.1]docosa-1(21),4,6,10,18-pentaen-9-yl carbamate], the Kd is greater than 100 µM.
To `CO[C@H]1C[C@H](C)Cc2c(O)c(cc(O)c2N=CCN(C)C)NC(=O)C(C)=CC=C[C@H](OC)[C@@H](OC(N)=O)C(C)=C[C@H](C)C1N=O` (stereo partly drawn) [(8S,9S,12S,14S,16R)-19-(2-(dimethylamino)ethylamino)-13-(hydroxyimino)-8,14-dimethoxy-4,10,12,16-tetramethyl-3,20,22-trioxo-2-azabicyclo[16.3.1]docosa-1(21),4,6,10,18-pentaen-9-yl carbamate] belongs greater than 10 µM; to `CO[C@H]1C=CC=C(C)C(=O)Nc2cc(O)c(N=CCF)c(c2O)C[C@@H](C)C[C@H](OC)[C@H](O)[C@@H](C)/C=C(\C)[C@@H]1OC(N)=O` [Carbamic acid (4E,6Z,10E)-(8S,9S,12S,13R,14S,16R)-19-(2-fluoro-ethylamino)-13-hydroxy-8,14-dimethoxy-4,10,12,16-tetramethyl-3,20,22-trioxo-2-aza-bicyclo[16.3.1]docosa-1(21),4,6,10,18-pentaen-9-yl ester], 0.8 µM.
